In US11649233B2, “Halo-allylamine SSAO/VAP-1 inhibitor and use thereof” (Nanjing Transthera Biosciences Co., Ltd., priority 2017, dated 2023):
Where a name gives a salt, the structure may show the parent alone.

Legend:
rhVAP-1 = rhVAP-1 (Homo sapiens (Human), UniProt Q16853); assay: Inhibition activity of the compounds on the rhVAP-1 enzyme (Amplex Red/HRP fluorescence, benzylamine substrate); type: biochemical; conditions: 30 minutes pre-incubation at 37° C.
Experimental: 1. Inhibition Activity of the Compounds on the rhVAP-1 Enzyme
Multifunctional microplate reader (MD, FlexStation 3), black bottom-impermeable 96-well plate (Corning), rhVAP-1 (PeproTech)
An appropriate amount of the test compound was dissolved in DMSO to 10 mM and stored. Before the experiment, an appropriate amount of 10 mM test compound mother liquor was diluted to 10 μM solution with DMSO. Then 3-fold gradient dilution with DMSO was performed, and 10 concentration gradients were formed.
An appropriate amount of protein diluent was added to the rhVAP-1 powder to obtain 1 mg/mL of the mother liquor for storage. Before the experiment, the dilution with PBS provided a 4×concentration of the enzyme solution.
An appropriate amount of benzylamine was added to PBS and dissolved to obtain 200 mM of the benzylamine solution. 2 mM Amplex Red mother liquor and 500 U/mL HRP mother liquor were added. The dilution with PBS provided 2×concentration substrate mixed solution.
First, 10 μL of compound solutions of different concentrations, 25 μL of 4×rhVAP-1 enzyme solution and 15 μL of PBS were added to a 96-well plate, evenly mixed by oscillation, and incubated at 37° C. for 30 minutes. Then 50 μL of 2×substrate mixed solution was added to each well, and immediately the detection was performed with the microplate reader in a condition of an exciting light at 565 nm, an emitting light at 590 nm, the fluorescence intensity for detecting each well of 5 minutes/run, and a total detection time of 25 minutes. The inhibition rate was calculated according to the following formula: V(RFU/min)=(Ft(RFU)−F0(RFU))/(Time(min)) Inhibition rate (%)=100%−Vcmpd(RFU/min)/V max(RFU/min)×100%
(§1) V: the fluorescence change rate; Ft: fluorescence reading at the time point t; F0: fluorescence reading at the time point 0; Time: time period t; Vcmpd: the fluorescence change rate of the test compound; Vmax: the Max well fluorescence change rate.
(§2) The log values of the concentrations were taken as the X-axis and the percent inhibition rates were taken as the Y-axis, and the dose-effect curve was fitted using the log(inhibitor) vs. response-Variable slope of the analytical software GraphPad Prism 5 to obtain the IC50 value of each compound for enzyme activity.

MAO-A = MAO-A (Homo sapiens (Human), UniProt P21397); assay: Selectivity of the compounds for MAO-A enzyme (MAO-Glo); type: biochemical; conditions: 60 minutes pre-incubation at 37° C.
Experimental: (§3) 2. Selectivity of the Compounds for MAO-A/B Enzymes
(§4) Microplate reader (Perkin Elmer, Envision), 384 well plates (Perkin Elmer), centrifuge (Eppendorf), MAO-Glo™ (Promega), MAO-A (Active Motif) and MAO-B (Active Motif).
(§5) An appropriate amount of the test compound was dissolved in DMSO to 10 mM and stored. Before the experiment, an appropriate amount of 10 mM test compound mother liquor was diluted to 100 μM solution with DMSO. Then 4-fold gradient dilution with DMSO was performed, and 6 concentration gradients were formed.
(§6) The MAO-A/B mother liquor was diluted to 2×concentration enzyme solution with the assay buffer solution for the MAO-A/B.
(§7) The mother liquor of the MAO-A/B substrate mixed solution was diluted to 2×concentration substrate mixed solution with the assay buffer solution for the MAO-A/B.
(§8) 200 nL of compound solutions of different concentrations or solvent
(§9) and 10 μL of 2×MAO-A/B enzyme solution were added to a 384-well plate, evenly mixed by oscillation, and incubated at 37° C. for 60 minutes. Then 10 μL of 2×substrate mixed solution was added to each well, and immediately the detection was performed with the microplate reader in a condition of an exciting light at 535 nm, an emitting light at 587 nm, the fluorescence intensity for detecting each well of 5 minutes/run, and a total detection time of 25 minutes.
(§10) The inhibition rate was calculated according to the following formula: V(RFU/min)=(Ft(RFU)−F0(RFU))/(Time(min)) Inhibition rate (%)=100%−Vcmpd(RFU/min)/V max(RFU/min)×100%
as §1, §2

[1] = In vitro stability test in the dog plasma; type: in vitro ADME; conditions: Beagle dog plasma, 37° C., 2 hours, 0.2 μM
Experimental: Biological Example 2: In Vitro Stability Test of the Compound of the Present Invention in the Dog Plasma
Test compound: about 2 mg of test compound was prepared with DMSO into a 5 mM stock solution, then diluted with DMSO to 1 mM solution, and finally diluted with water to 50 μM test compound working solution for use.
Termination solution: about 2 mg of tolbutamide compound was firstly prepared with DMSO into a 1 mg/mL stock solution, finally diluted with acetonitrile to 100 ng/mL termination solution, and stored at 4° C. for later use.
(1) Frozen Beagle dog plasma was pre-incubated and thawed in a 37° C. water bath constant temperature oscillator for use.
(2) 10 μL of test compound (10 μM) was added to 490M (Beagle dog plasma, final concentration of the test substance was 0.2 μM, two duplicate samples.
(3) The sample was evenly mixed in vortex and incubated in a 37° C. water bath constant temperature oscillator.
(4) At the corresponding time points (T=0 h, 0.5 h, 1 h, 2 h; sample at 0 h was not incubated), 400 μL of the termination solution was added to 40 μL of the reaction solution obtained by reacting the test compound of step (2) and the components in the blood plasma, and the resulting mixture was evenly mixed and frozen at −80° C. for storage. […]

MAO-B = MAO-B (Homo sapiens (Human), UniProt P27338); assay: Selectivity of the compounds for MAO-B enzyme (MAO-Glo); type: biochemical; conditions: 60 minutes pre-incubation at 37° C.
Experimental: as §3, §4, §5, §6, §7, §8, §9, §10, §1, §2

[2] = Stability test in human liver microsome; type: in vitro ADME; conditions: human liver microsome 0.5 mg protein/mL, compound 1 μM, β-NADPH
Experimental: Biological Example 3: Stability Test of the Compounds of the Present Invention in Human Liver Microsome
The composition of the incubation system:
(1) The liver microsome (20 mg protein/mL) was removed from the −80° C. refrigerator, pre-incubated in a 37° C. water bath constant temperature oscillator for 3 minutes, and thawed for use.
(2) A mixed solution of the incubation system (excluding compound and β-NADPH) according to the above “composition of the incubation system” for the test was prepared, and pre-incubated in a 37° C. water bath constant temperature oscillator for 2 minutes.
(3) Control group (excluding β-NADPH): 30 μL of water and 30 μL of compound working solution (concentration: 10 μM) were added to 240 μL of the mixed solution of the incubation system of step (2), and vortexed for 30 seconds to mix well. The total reaction volume was 300 μL. A duplicate sample was prepared. The sample was incubated in a 37° water bath constant temperature oscillator. The timing began and the sampling time points were set at 0 minute and 60 minutes.
(4) Sample group: 70 μL β-NADPH solution (10 mM) and 70 μL compound working solution (concentration: 10 μM) were added to 560 μL of the mixed solution in step (2). The total reaction volume was 700 μL. The resulting mixture was vortexed for 30 seconds to mix well. A duplicate sample was prepared. The sample was incubated in a 37° C. water bath constant temperature oscillator. The timing began and the sampling time points were set at 0 minute, 5 minutes, 10 minutes, 20 minutes, 30 minutes, and 60 minutes after timing.
(5) After vortexing for 3 minutes, the sample was centrifuged at 12000 rpm for 5 minutes.
(6) 150 μL of water was added to 50 μL of the supernatant. The resulting mixture was evenly mixed in vortex, and the sample LC/MS/MS analysis was performed.

MAO-A, sequence (P21397 whole entry): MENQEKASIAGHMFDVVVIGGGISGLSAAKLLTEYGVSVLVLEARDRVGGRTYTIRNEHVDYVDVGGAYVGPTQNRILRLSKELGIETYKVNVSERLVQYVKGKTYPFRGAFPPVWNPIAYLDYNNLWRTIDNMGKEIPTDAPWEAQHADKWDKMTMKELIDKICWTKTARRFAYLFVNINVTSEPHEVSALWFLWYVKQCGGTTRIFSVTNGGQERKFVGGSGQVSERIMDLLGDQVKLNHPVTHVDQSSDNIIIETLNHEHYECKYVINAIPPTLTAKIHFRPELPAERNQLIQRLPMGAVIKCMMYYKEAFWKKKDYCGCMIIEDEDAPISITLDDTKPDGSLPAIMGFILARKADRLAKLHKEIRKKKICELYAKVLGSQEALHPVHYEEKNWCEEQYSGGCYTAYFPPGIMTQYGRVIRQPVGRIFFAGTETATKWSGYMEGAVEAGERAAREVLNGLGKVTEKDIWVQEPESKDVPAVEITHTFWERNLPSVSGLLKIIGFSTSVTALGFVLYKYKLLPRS
rhVAP-1, sequence (Q16853 whole entry): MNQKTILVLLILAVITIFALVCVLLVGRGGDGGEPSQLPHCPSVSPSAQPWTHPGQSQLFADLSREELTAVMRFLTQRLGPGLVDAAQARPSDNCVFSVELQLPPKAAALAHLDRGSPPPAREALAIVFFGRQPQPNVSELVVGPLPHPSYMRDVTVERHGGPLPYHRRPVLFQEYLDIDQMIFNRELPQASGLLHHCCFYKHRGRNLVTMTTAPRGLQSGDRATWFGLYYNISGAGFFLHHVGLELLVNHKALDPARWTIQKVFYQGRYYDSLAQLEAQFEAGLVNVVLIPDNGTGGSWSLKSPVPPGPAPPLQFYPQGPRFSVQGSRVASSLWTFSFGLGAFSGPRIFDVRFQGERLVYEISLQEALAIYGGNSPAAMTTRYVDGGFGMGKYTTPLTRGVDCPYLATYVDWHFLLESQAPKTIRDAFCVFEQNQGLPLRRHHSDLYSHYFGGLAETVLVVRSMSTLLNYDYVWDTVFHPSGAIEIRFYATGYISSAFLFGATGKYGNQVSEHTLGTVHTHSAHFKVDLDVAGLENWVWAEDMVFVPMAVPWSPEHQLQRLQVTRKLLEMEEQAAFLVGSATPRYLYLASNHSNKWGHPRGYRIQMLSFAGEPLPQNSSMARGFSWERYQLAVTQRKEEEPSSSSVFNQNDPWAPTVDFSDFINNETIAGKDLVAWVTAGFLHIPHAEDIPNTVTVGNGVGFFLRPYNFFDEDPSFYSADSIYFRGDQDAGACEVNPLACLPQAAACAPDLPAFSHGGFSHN
MAO-B, sequence (P27338 whole entry): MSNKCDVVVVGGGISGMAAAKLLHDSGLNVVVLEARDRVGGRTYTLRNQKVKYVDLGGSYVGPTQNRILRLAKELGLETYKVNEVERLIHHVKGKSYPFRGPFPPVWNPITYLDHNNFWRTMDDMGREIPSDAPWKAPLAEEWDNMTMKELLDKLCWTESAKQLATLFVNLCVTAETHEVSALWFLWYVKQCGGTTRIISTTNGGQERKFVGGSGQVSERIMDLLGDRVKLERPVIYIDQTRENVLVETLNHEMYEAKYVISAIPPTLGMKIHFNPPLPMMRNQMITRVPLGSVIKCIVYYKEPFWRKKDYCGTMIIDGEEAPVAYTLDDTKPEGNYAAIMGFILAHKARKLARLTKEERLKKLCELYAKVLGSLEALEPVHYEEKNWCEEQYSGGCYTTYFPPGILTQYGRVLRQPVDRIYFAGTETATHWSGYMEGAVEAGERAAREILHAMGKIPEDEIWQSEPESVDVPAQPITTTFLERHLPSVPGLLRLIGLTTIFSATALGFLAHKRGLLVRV

Structure (SMILES): NC/C(=C\F)COc1ccc2c(c1)CCN(C1CC1)C2=O [Hydrochloride of Compound 5, (E)-6-((2-(aminomethyl)-3-fluoroallyl)oxy)-2-cyclopropyl-3,4-dihydroisoquinolin-1(2H)-one]
- IC50 (rhVAP-1): 18 nM
- IC50 (MAO-A): 1300 nM
- Retention Rate [1]: 98.6%
- IC50 (MAO-B): 6300 nM
- ClH [2]: 4.63 mL/min/kg
